Measurements as given in PMC10949855 (Journal of veterinary pharmacology and therapeutics, 2022).

Test system: healthy dogs
Experiment: Sedation score
Format: in vivo, dogs (Beagles)
[1] = IV CRI 0.2 mg/kg + 0.2 mg/kg/hr for 8 hr, 0.5 hr
[2] = IV CRI 0.2 mg/kg + 0.2 mg/kg/hr for 8 hr, 1 hr
[3] = IV CRI 0.2 mg/kg + 0.2 mg/kg/hr for 8 hr, 1.5 hr
[4] = IV CRI 0.2 mg/kg + 0.2 mg/kg/hr for 8 hr, 2 hr
[5] = IV CRI 0.2 mg/kg + 0.2 mg/kg/hr for 8 hr, 3 hr
[6] = IV CRI 0.2 mg/kg + 0.2 mg/kg/hr for 8 hr, 4 hr
[7] = IV CRI 0.2 mg/kg + 0.2 mg/kg/hr for 8 hr, 5 hr
[8] = IV CRI 0.2 mg/kg + 0.2 mg/kg/hr for 8 hr, 6 hr
[9] = IV CRI 0.2 mg/kg + 0.2 mg/kg/hr for 8 hr, 7 hr
[10] = IV CRI 0.2 mg/kg + 0.2 mg/kg/hr for 8 hr, 8 hr
[11] = IV CRI 0.2 mg/kg + 0.2 mg/kg/hr for 8 hr, 9 hr
[12] = IV CRI 0.2 mg/kg + 0.2 mg/kg/hr for 8 hr, 10 hr
[13] = IV CRI 0.2 mg/kg + 0.2 mg/kg/hr for 8 hr, 11 hr
[14] = IV CRI 0.2 mg/kg + 0.2 mg/kg/hr for 8 hr, 12 hr
[15] = IV CRI 0.2 mg/kg + 0.2 mg/kg/hr for 8 hr, 24 hr

Oc1ccc2c(c1)[C@@]13CCCC[C@@]1(O)[C@@H](C2)N(CC1CCC1)CC3 [butorphanol]
number of dogs with sedation score 0 [1]: 0 | number of dogs with sedation score 1 [1]: 3 | number of dogs with sedation score 2 [1]: 2 | number of dogs with sedation score 3 [1]: 0 | number of dogs with sedation score 0 [2]: 0 | number of dogs with sedation score 1 [2]: 3 | number of dogs with sedation score 2 [2]: 1 | number of dogs with sedation score 3 [2]: 1 | number of dogs with sedation score 0 [3]: 0 | number of dogs with sedation score 1 [3]: 3 | number of dogs with sedation score 2 [3]: 1 | number of dogs with sedation score 3 [3]: 1 | number of dogs with sedation score 0 [4]: 0 | number of dogs with sedation score 1 [4]: 3 | number of dogs with sedation score 2 [4]: 2 | number of dogs with sedation score 3 [4]: 0 | number of dogs with sedation score 0 [5]: 0 | number of dogs with sedation score 1 [5]: 3 | number of dogs with sedation score 2 [5]: 2 | number of dogs with sedation score 3 [5]: 0 | number of dogs with sedation score 0 [6]: 0 | number of dogs with sedation score 1 [6]: 4 | number of dogs with sedation score 2 [6]: 1 | number of dogs with sedation score 3 [6]: 0 | number of dogs with sedation score 0 [7]: 0 | number of dogs with sedation score 1 [7]: 4 | number of dogs with sedation score 2 [7]: 1 | number of dogs with sedation score 3 [7]: 0 | number of dogs with sedation score 0 [8]: 0 | number of dogs with sedation score 1 [8]: 4 | number of dogs with sedation score 2 [8]: 1 | number of dogs with sedation score 3 [8]: 0 | number of dogs with sedation score 0 [9]: 0 | number of dogs with sedation score 1 [9]: 4 | number of dogs with sedation score 2 [9]: 1 | number of dogs with sedation score 3 [9]: 0 | number of dogs with sedation score 0 [10]: 0 | number of dogs with sedation score 1 [10]: 3 | number of dogs with sedation score 2 [10]: 2 | number of dogs with sedation score 3 [10]: 0 | number of dogs with sedation score 0 [11]: 0 | number of dogs with sedation score 1 [11]: 5 | number of dogs with sedation score 2 [11]: 0 | number of dogs with sedation score 3 [11]: 0 | number of dogs with sedation score 0 [12]: 0 | number of dogs with sedation score 1 [12]: 5 | number of dogs with sedation score 2 [12]: 0 | number of dogs with sedation score 3 [12]: 0 | number of dogs with sedation score 0 [13]: 2 | number of dogs with sedation score 1 [13]: 3 | number of dogs with sedation score 2 [13]: 0 | number of dogs with sedation score 3 [13]: 0 | number of dogs with sedation score 0 [14]: 4 | number of dogs with sedation score 1 [14]: 1 | number of dogs with sedation score 2 [14]: 0 | number of dogs with sedation score 3 [14]: 0 | number of dogs with sedation score 0 [15]: 5 | number of dogs with sedation score 1 [15]: 0 | number of dogs with sedation score 2 [15]: 0 | number of dogs with sedation score 3 [15]: 0 | time with moderate sedation or higher (sedation score >1) in at least one dog (IV bolus 0.4 mg/kg IV): 1.5 to 2 h | number of dogs with sedation score 0 (IV bolus 0.4 mg/kg, 0.5 hr): 0 | number of dogs with sedation score 1 (IV bolus 0.4 mg/kg, 0.5 hr): 6 | number of dogs with sedation score 2 (IV bolus 0.4 mg/kg, 0.5 hr): 0 | number of dogs with sedation score 3 (IV bolus 0.4 mg/kg, 0.5 hr): 0 | number of dogs with sedation score 0 (IV bolus 0.4 mg/kg, 1 hr): 0 | number of dogs with sedation score 1 (IV bolus 0.4 mg/kg, 1 hr): 6 | number of dogs with sedation score 2 (IV bolus 0.4 mg/kg, 1 hr): 0 | number of dogs with sedation score 3 (IV bolus 0.4 mg/kg, 1 hr): 0 | number of dogs with sedation score 0 (IV bolus 0.4 mg/kg, 1.5 hr): 0 | number of dogs with sedation score 1 (IV bolus 0.4 mg/kg, 1.5 hr): 5 | number of dogs with sedation score 2 (IV bolus 0.4 mg/kg, 1.5 hr): 1 | number of dogs with sedation score 3 (IV bolus 0.4 mg/kg, 1.5 hr): 0 | number of dogs with sedation score 0 (IV bolus 0.4 mg/kg, 2 hr): 0 | number of dogs with sedation score 1 (IV bolus 0.4 mg/kg, 2 hr): 5 | number of dogs with sedation score 2 (IV bolus 0.4 mg/kg, 2 hr): 1 | number of dogs with sedation score 3 (IV bolus 0.4 mg/kg, 2 hr): 0 | number of dogs with sedation score 0 (IV bolus 0.4 mg/kg, 3 hr): 0 | number of dogs with sedation score 1 (IV bolus 0.4 mg/kg, 3 hr): 6 | number of dogs with sedation score 2 (IV bolus 0.4 mg/kg, 3 hr): 0 | number of dogs with sedation score 3 (IV bolus 0.4 mg/kg, 3 hr): 0 | number of dogs with sedation score 0 (IV bolus 0.4 mg/kg, 4 hr): 1 | number of dogs with sedation score 1 (IV bolus 0.4 mg/kg, 4 hr): 5 | number of dogs with sedation score 2 (IV bolus 0.4 mg/kg, 4 hr): 0 | number of dogs with sedation score 3 (IV bolus 0.4 mg/kg, 4 hr): 0 | number of dogs with sedation score 0 (IV bolus 0.4 mg/kg, 5 hr): 1 | number of dogs with sedation score 1 (IV bolus 0.4 mg/kg, 5 hr): 5 | number of dogs with sedation score 2 (IV bolus 0.4 mg/kg, 5 hr): 0 | number of dogs with sedation score 3 (IV bolus 0.4 mg/kg, 5 hr): 0 | number of dogs with sedation score 0 (IV bolus 0.4 mg/kg, 6 hr): 5 | number of dogs with sedation score 1 (IV bolus 0.4 mg/kg, 6 hr): 1 | number of dogs with sedation score 2 (IV bolus 0.4 mg/kg, 6 hr): 0 | number of dogs with sedation score 3 (IV bolus 0.4 mg/kg, 6 hr): 0 | number of dogs with sedation score 0 (IV bolus 0.4 mg/kg, 7 hr): 5 | number of dogs with sedation score 1 (IV bolus 0.4 mg/kg, 7 hr): 1 | number of dogs with sedation score 2 (IV bolus 0.4 mg/kg, 7 hr): 0 | number of dogs with sedation score 3 (IV bolus 0.4 mg/kg, 7 hr): 0 | number of dogs with sedation score 0 (IV bolus 0.4 mg/kg, 8 hr): 6 | number of dogs with sedation score 1 (IV bolus 0.4 mg/kg, 8 hr): 0 | number of dogs with sedation score 2 (IV bolus 0.4 mg/kg, 8 hr): 0 | number of dogs with sedation score 3 (IV bolus 0.4 mg/kg, 8 hr): 0 | number of dogs with sedation score 0 (IV bolus 0.4 mg/kg, 9 hr): 6 | number of dogs with sedation score 1 (IV bolus 0.4 mg/kg, 9 hr): 0 | number of dogs with sedation score 2 (IV bolus 0.4 mg/kg, 9 hr): 0 | number of dogs with sedation score 3 (IV bolus 0.4 mg/kg, 9 hr): 0 | number of dogs with sedation score 0 (IV bolus 0.4 mg/kg, 10 hr): 6 | number of dogs with sedation score 1 (IV bolus 0.4 mg/kg, 10 hr): 0 | number of dogs with sedation score 2 (IV bolus 0.4 mg/kg, 10 hr): 0 | number of dogs with sedation score 3 (IV bolus 0.4 mg/kg, 10 hr): 0 | number of dogs with sedation score 0 (IV bolus 0.4 mg/kg, 11 hr): 6 | number of dogs with sedation score 1 (IV bolus 0.4 mg/kg, 11 hr): 0 | number of dogs with sedation score 2 (IV bolus 0.4 mg/kg, 11 hr): 0 | number of dogs with sedation score 3 (IV bolus 0.4 mg/kg, 11 hr): 0 | number of dogs with sedation score 0 (IV bolus 0.4 mg/kg, 12 hr): 6 | number of dogs with sedation score 1 (IV bolus 0.4 mg/kg, 12 hr): 0 | number of dogs with sedation score 2 (IV bolus 0.4 mg/kg, 12 hr): 0 | number of dogs with sedation score 3 (IV bolus 0.4 mg/kg, 12 hr): 0 | number of dogs with sedation score 0 (IV bolus 0.4 mg/kg, 24 hr): 4 | number of dogs with sedation score 1 (IV bolus 0.4 mg/kg, 24 hr): 0 | number of dogs with sedation score 2 (IV bolus 0.4 mg/kg, 24 hr): 0 | number of dogs with sedation score 3 (IV bolus 0.4 mg/kg, 24 hr): 0
